Assay: Solubilization of cannabinoids in NaOH and KOH solutions
Format: physicochemical
Method: Concentration Selection: NaOH and KOH solutions having concentrations ranging from 0M to 2M were prepared and tested for their ability to solubilize D9THCA and CBDA. […] All forms of cannabinoids were extracted using NaOH and KOH. It was also determined that neutral cannabinoids were removed from the plant to a much less extent during base extraction.

SMILES	Degradation by strong base (NaOH/KOH solution above 0.3M)	Solubility (NaOH and KOH solutions, concentrations ranging from 0M to 2M)
CCCCCc1cc2c(c(O)c1C(=O)O)[C@@H]1C=C(C)CC[C@H]1C(C)(C)O2 [D9THCA, tetrahydrocannabinolic acid]	begins to noticeable degrade	–
C=C(C)[C@@H]1CCC(C)=C[C@H]1c1c(O)cc(CCCCC)c(C(=O)O)c1O [CBDA, cannabidolic acid]	–	higher than D9THC
